For one series, the system named is DENV (serotype 2). Description: microbe, parasite or virus in culture. The conditions noted are these: for EC50: read-out: Dengue EC50. It counts as cell-based, Dengue virus serotype 2.
A short description of series [1]: in vitro.
The next series concerns YFV. Description: microbe, parasite or virus in culture. It counts as cell-based, yellow fever virus. The conditions noted are these: for EC50: read-out: Yellow fever EC50.
Series [2] is described as follows: in vitro. The settings on record: chlorocebus aethiops, Yellow fever CC50.

The structures appear in SMILES notation. Read-outs that look alike come from different tables or passages of the source.

This note sets out measurements from paper PMC4999056 (European Journal of Medicinal Chemistry, 2016).

Consider `Cc1ccc(NC(=O)c2nccnc2C(=O)Nc2ccc(C)cc2-c2ccsc2)cc1` [6h, N^2-(4-methyl-2-(thiophen-3-yl)phenyl)-N^3-(p-tolyl)pyrazine-2,3-dicarboxamide], for which the “Dengue SI” value in the series with DENV (serotype 2) is more than 29. The EC50 was 0.5 to 3.4 µM in the series on DENV (serotype 2) (Dengue virus, Vero B); less than 0.9 µM in the series with DENV (serotype 2); more than 116 µM with YFV (Yellow fever virus, Vero B). In the series “in vitro [1]” (chlorocebus aethiops), this molecule had a CC50 at 168 h of 26 µM. In addition, the “Yellow fever SI” value in the series on YFV was 1. This molecule gave a CC50 in the series “in vitro [2]” of more than 116 µM.
On to `O=C(NCc1ccccc1-c1ccsc1)c1nccnc1C(=O)Nc1ccc(F)cc1` [6i, N^2-(4-fluorophenyl)-N^3-(2-(thiophen-3-yl)benzyl)pyrazine-2,3-dicarboxamide], for which the “Dengue SI” value in the series on DENV (serotype 2) is reported as 2. The EC50 in the series on DENV (serotype 2) (Dengue virus, Vero B) came out at 24 µM; with YFV (Yellow fever virus, Vero B), 3.9 µM. Besides, the CC50 at 168 h in the series “in vitro [1]” (chlorocebus aethiops) came to 52 µM; in “in vitro [2]”, 76 µM. The “Yellow fever SI” value in the series on YFV is 19.
In the case of `Cc1ccc(NC(=O)c2nccnc2C(=O)NCc2ccccc2-c2ccsc2)cc1` [6j, N^2-(2-(thiophen-3-yl)benzyl)-N^3-(p-tolyl)pyrazine-2,3-dicarboxamide], in the series on DENV (serotype 2), the “Dengue SI” value was determined as 1. The EC50 with DENV (serotype 2) (Dengue virus, Vero B) is more than 48 µM; with YFV, 5.4 µM. Further, the results for the CC50 at 168 h in the series “in vitro [1]” (chlorocebus aethiops) and in the series “in vitro [2]” were 48 µM and 75 µM, respectively. In addition, the “Yellow fever SI” value in the series on YFV was found to be 14.
`O=C(NCc1ccc(-c2ccsc2)cc1)c1nccnc1C(=O)Nc1ccc(F)cc1` [6k, N^2-(4-fluorophenyl)-N^3-(4-(thiophen-3-yl)benzyl)pyrazine-2,3-dicarboxamide]: the “Dengue SI” value in the series on DENV (serotype 2) came out at 1. Besides, the EC50 in the series on DENV (serotype 2) (Dengue virus, Vero B) is more than 116 µM; in the series with YFV (Yellow fever virus, Vero B), 18.5 µM. Further, the CC50 in the series “in vitro [1]” (chlorocebus aethiops) and in “in vitro [2]” was more than 116 µM in each case. In the series with YFV, the “Yellow fever SI” value is on record as more than 6.
For the molecule `Cc1ccc(NC(=O)c2nccnc2C(=O)NCc2ccc(-c3ccsc3)cc2)cc1` [6l, N^2-(4-(thiophen-3-yl)benzyl)-N^3-(p-tolyl)pyrazine-2,3-dicarboxamide], in the series with DENV (serotype 2), the “Dengue SI” value is reported as more than 8. The “fold increase in DENV activity for the methyl congener” value with DENV (serotype 2) amounted to 10 fold. Moreover, the EC50 with DENV (serotype 2) (Dengue virus, Vero B) stood at 14 µM; with YFV (Yellow fever virus, Vero B) it was 21.5 µM. Moreover, the CC50 in “in vitro [1]” (chlorocebus aethiops) and in “in vitro [2]” was more than 117 µM throughout. Besides, in the series on YFV, the “Yellow fever SI” value is more than 5.
On to `Cc1cc(-c2ccccc2NC(=O)c2nccnc2C(=O)Nc2ccc(F)cc2)[nH]n1` [6m, N^2-(4-fluorophenyl)-N^3-(2-(3-methyl-1H-pyrazol-5-yl)phenyl)pyrazine-2,3-dicarboxamide], for which, in the series with DENV (serotype 2), the “Dengue SI” value was more than 55 and the “fold increase of DENV inhibitory properties” value is 12 fold. Besides, in the series with DENV (serotype 2) (Dengue virus, Vero B), the EC50 is 2.2 µM. In the series “in vitro [1]” (chlorocebus aethiops), this molecule showed a CC50 of more than 120 µM. Further, the “Yellow fever SI” value in the series with YFV was 10. For the same molecule, the half-maximal effective concentration (EC50) in the series with YFV (Yellow fever virus, Vero B) amounted to 7.8 µM. Moreover, in “in vitro [2]”, the CC50 at 168 h amounted to 77 µM.
Regarding `Cc1ccc(NC(=O)c2nccnc2C(=O)Nc2ccccc2-c2cc(C)n[nH]2)cc1` [6n, N^2-(2-(3-methyl-1H-pyrazol-5-yl)phenyl)-N^3-(p-tolyl)pyrazine-2,3-di-carboxamide], in the series on DENV (serotype 2), the “Dengue SI” value was determined as 7 and the “fold reduced DENV inhibitory activity” value is reported as 7 fold. Further, the EC50 with DENV (serotype 2) (Dengue virus, Vero B) is 3.4 µM. In “in vitro [1]” (chlorocebus aethiops), this molecule showed a CC50 at 168 h of 24 µM. In the series on YFV, the “Yellow fever SI” value is reported as more than 34. The EC50 in the series with YFV (Yellow fever virus, Vero B) was 0.4 µM. This molecule also registered a CC50 in “in vitro [2]” of more than 13.6 µM.
With `Cc1ccc(NC(=O)c2ccccc2C(=O)Nc2ccc(F)cc2)c(-c2cccs2)c1` [7b, N^1-(4-fluorophenyl)-N^2-(4-methyl-2-(thiophen-2-yl)phenyl)phthalamide], the “Dengue SI” value with DENV (serotype 2) is reported as more than 29. For the same molecule, the EC50 in the series with DENV (serotype 2) (Dengue virus, Vero B) is 4 µM; with YFV (Yellow fever virus, Vero B), 23.2 µM. In addition, the results for the CC50 in “in vitro [1]” (chlorocebus aethiops) and in the series “in vitro [2]” were more than 117 µM and more than 37 µM, respectively. For the same molecule, in the series on YFV, the “Yellow fever SI” value is more than 1.6.
For the molecule `Cc1ccc(NC(=O)c2ccccc2C(=O)Nc2ccc(C)cc2-c2cccs2)cc1` [7d, N^1-(4-methyl-2-(thiophen-2-yl)phenyl)-N^2-(p-tolyl)phthalamide], in the series on DENV (serotype 2), the “Dengue SI” value was more than 8. Also, the EC50 with DENV (serotype 2) (Dengue virus, Vero B) came to 14 µM; in the series on YFV (Yellow fever virus, Vero B), 23.2 µM. In addition, the CC50 in “in vitro [1]” (chlorocebus aethiops) is more than 117 µM; in “in vitro [2]”, more than 37 µM. Also, the “Yellow fever SI” value in the series on YFV is more than 1.6.
As for `Cc1ccc(NC(=O)c2ccccc2C(=O)Nc2ccc(C)cc2-c2ccc(C)s2)cc1` [7e, N^1-(4-methyl-2-(5-methylthiophen-2-yl)phenyl)-N^2-(p-tolyl)phthalamide], the “Dengue SI” value in the series with DENV (serotype 2) is more than 57. In addition, the EC50 was found to be 2 µM in the series on DENV (serotype 2) (Dengue virus, Vero B) and 6.8 µM in the series with YFV (Yellow fever virus, Vero B). The CC50 in “in vitro [1]” (chlorocebus aethiops) is more than 114 µM. The “Yellow fever SI” value in the series on YFV is given as 3.4. The CC50 at 168 h in the series “in vitro [2]” was 23 µM.
For the molecule `Cc1ccc(NC(=O)c2ccccc2C(=O)Nc2ccc(F)cc2)c(-c2ccc(C)s2)c1` [7f, N^1-(4-fluorophenyl)-N^2-(4-methyl-2-(5-methylthiophen-2-yl)phenyl)phthalamide], in the series with DENV (serotype 2), the “Dengue SI” value is recorded as more than 39. Besides, the EC50 in the series on DENV (serotype 2) (Dengue virus, Vero B) worked out at 2.9 µM; in the series on YFV (Yellow fever virus, Vero B) it was 6.8 µM. The CC50 in the series “in vitro [1]” (chlorocebus aethiops) and in the series “in vitro [2]” was more than 113 µM in each case. In addition, in the series with YFV, the “Yellow fever SI” value is recorded as more than 17.
As for `Cc1ccc(NC(=O)c2ccccc2C(=O)Nc2ccc(C)cc2-c2ccsc2)cc1` [7g, N^1-(4-methyl-2-(thiophen-3-yl)phenyl)-N^2-(p-tolyl)phthalamide], the EC50 worked out at 0.5 µM with DENV (serotype 2) (Dengue virus, Vero B); 0.7 µM in the series with DENV (serotype 2); 1.9 µM in the series on YFV (Yellow fever virus, Vero B). Besides, in the series “in vitro [1]” (chlorocebus aethiops), the CC50 at 168 h was 12.9 µM. Also, the CC50 was more than 116 µM in the series “in vitro [1]” (green monkey) and more than 117 µM in “in vitro [2]”. In addition, in the series on YFV, the “Yellow fever SI” value was more than 60.
Take `Cc1ccc(NC(=O)c2ccccc2C(=O)Nc2ccc(F)cc2)c(-c2ccsc2)c1` [7h, N^1-(4-fluorophenyl)-N^2-(4-methyl-2-(thiophen-3-yl)phenyl)phthalamide]: the “Dengue SI” value with DENV (serotype 2) is 16. Also, the EC50 was 3 µM in the series with DENV (serotype 2) (Dengue virus, Vero B) and 6.5 µM in the series with YFV (Yellow fever virus, Vero B). In addition, the CC50 at 168 h in “in vitro [1]” (chlorocebus aethiops) is 47 µM; in the series “in vitro [2]”, 67 µM. Moreover, the “Yellow fever SI” value in the series on YFV is recorded as 10.
As to `Cc1ccc(NC(=O)c2ccccc2C(=O)NCc2ccccc2-c2ccsc2)cc1` [7j, N^1-(2-(thiophen-3-yl)benzyl)-N^2-(p-tolyl)phthalamide], the “Dengue SI” value in the series with DENV (serotype 2) is reported as 17. Also, the EC50 with DENV (serotype 2) (Dengue virus, Vero B) was determined as 3 µM; in the series with YFV (Yellow fever virus, Vero B), 2.6 µM. Moreover, the CC50 at 168 h in the series “in vitro [1]” (chlorocebus aethiops) is 50 µM; in “in vitro [2]”, 61 µM. In addition, the “Yellow fever SI” value with YFV turned out to be 23.
For `O=C(NCc1ccc(-c2ccsc2)cc1)c1ccccc1C(=O)Nc1ccc(F)cc1` [7k, N^1-(4-fluorophenyl)-N^2-(4-(thiophen-3-yl)benzyl)phthalamide], the “Dengue SI” value in the series with DENV (serotype 2) was more than 7. Moreover, the 50% effective concentration (EC50) in the series with DENV (serotype 2) (Dengue virus, Vero B) was determined as 16 µM; in the series on YFV (Yellow fever virus, Vero B), 7.4 µM. Besides, the results for the CC50 in the series “in vitro [1]” (chlorocebus aethiops) and in the series “in vitro [2]” were more than 116 µM and more than 117 µM, respectively. Moreover, the “Yellow fever SI” value in the series on YFV was more than 16.
For `Cc1ccc(NC(=O)c2ccccc2C(=O)NCc2ccc(-c3ccsc3)cc2)cc1` [7l, N^1-(4-(thiophen-3-yl)benzyl)-N^2-(p-tolyl)phthalamide], in the series on DENV (serotype 2), the “Dengue SI” value is listed as more than 8. For the same molecule, the EC50 in the series with DENV (serotype 2) (Dengue virus, Vero B) amounted to 13.8 µM; with YFV (Yellow fever virus, Vero B), 3.3 µM. Further, the CC50 in the series “in vitro [1]” (chlorocebus aethiops) and in “in vitro [2]” was more than 117 µM each time. Further, the “Yellow fever SI” value in the series on YFV is given as more than 35.
